Assay results: patent US6235738A, “Diphenyl-substituted heterocycles with 6-membered ring, processes for the preparation thereof and the use thereof as medicaments” (Boehringer Ingelheim Pharma KG, priority 1998, dated 2001)

What was measured:
AMPA receptor = assay: Inhibition of the signal induced by kainate on AMPA receptor (electrophysiology on neuronal cells, Patch-Clamp method); assay type: cell-based; conditions: concentration not given
Method: The effected on AMPA receptor was tested by electrophysiology on neuronal cells (Patch-Clamp method) (M. L. Mayer, L. Vyklicky and G. L. Westbrook, J. Physiol. 415(1989) 329-350).
Inhibition of the signal induced by kainate on AMPA receptor

[1] = biological target: Na^+ canal site 2 binding site; assay: Affinity for the "Na^+ canal site 2" binding site; conditions: tests typically at a test concentration of 10 μM
Method: The test of affinity for the "Na^+ canal site 2" binding site was carried out as described by G. B. Brown (J. Neurosci. 6 (1986) 2064). Tests were carried out typically at a test concentration of 10 μM.

Row | Ki [1] [nM] | Structure (SMILES) | AMPA Inh. (AMPA receptor) [%]
1 | 4000 | CN(C)CCOc1ccccc1-c1ccnc(-c2ccccc2)n1 [Example 4, 4-{2-[2-(N,N-Dimethylamino)ethyl]oxy-phenyl}-2-phenyl-pyrimidine] | 96
2 | 2800 | CN(C)CCOc1ccccc1-c1ncnc(-c2ccccc2)n1 [Example 6, 2-{2-[2-(N,N-Dimethylamino)ethyl]oxy-phenyl}-4-phenyl-1,3,5-triazine] | 66
3 | 2400 | CN(C)CCOc1ccccc1-c1cnnc(-c2ccccc2)n1 [Example 7, 5-{2-[2-(N,N-Dimethylamino)ethyl]oxy-phenyl}-3-phenyl-1,2,4-triazine] | 98
4 |  | CN(C)CCOc1ccccc1-c1nncc(-c2ccccc2)n1 [Example 8, 3-{2-[2-(N,N-Dimethylamino)ethyl]oxy-phenyl}-5-phenyl-1,2,4-triazine] | 95
